Source: US11225474B2, “Crystalline salt forms of 3-(1,2,4-triazolo[4,3-a]pyridine-3-ylethynyl)-4-methyl-N-(4-((4-methylpiperazin-1-yl)methyl)-3-trifluoromethylphenyl)benzamide for medical application” (priority 2016, dated 2022)
Converted amounts (≈) assume the structure as drawn. Where two headings read alike, the source gives them in different places.

Assays:
[1] = Hygroscopicity by gravimetric moisture absorption; format: physicochemical; settings: for water absorbed (hygroscopicity): relative air humidity of 90%
Source text: Samples were also studied using the following methods: polarization microscopy (Leica DMRB Polarized Microscope, resolution of 1600×1200)—to confirm crystallinity, ion chromatography—to confirm anion and cation stoichiometric proportion, differential scanning calorimetry (DSC) and thermogravimetric analysis (TGA)—to confirm composition and study of temperature stability of samples; ^1H NMR (500 MHz Bruker AVANCE 500.13 MHz, solvent DMSO-d6)—to confirm structure, assess purity and content of organic solvents; gravimetric moisture absorption—to assess hygroscopicity. DSC was carried out using Mettler 822e DSC apparatus. The measuring system was calibrated according to ISO 11357-1 standard based on standard substances phase changes (C6H12; Hg; benzoic acid; Ga; KNO3; In; Sn; Bi; CsCl; purity grade 99.99%). Temperature calibration regular error (determined based on In) is 0.1°. Samples were tested in standard aluminum cells in the artificial air flow at a temperature range of 30-300° C. with heating speed of 10°/min. TG measurements were taken using Mettler 851e SDTA/TGA TG analyzer. The apparatus was calibrated using standard substances melting points (Ag; Al; Bi; In; Sn; purity grade of 99.99%). Weighing error is NMT 0.1% (determined using CaC2O4·2H2O standard). The test was carried out in a standard open aluminum container in the artificial air flow at a temperature range of 30-150° C. with heating speed of 10°/min. To avoid dehydration, the material was not exposed to mechanical treatment before taking measurements.

physchem [2] = format: physicochemical; settings: deionized water
[3] = for pH: equilibrium solubility test in water; for Crystallinity in 24 h: solid in water, equilibrium solubility test
[4] = Stability of polymorph modifications, suspending in acetone for 6 days; format: physicochemical; settings: for crystalline structure after suspending in acetone: 6 days; for Crystallinity in 6 days: suspending in acetone for 6 days, room temperature
Description: Crystallinity of all samples obtained was studied using the method of X-ray powder diffraction (to study the crystallinity structure). Diffraction patterns were obtained at a temperature of 25° C. […] Survey step 0.02° 2θ, angle range 3-45° 2θ. Diffraction patterns obtained were studied in detail using X'Pert HighScore Plus software package.

[5] = Stability, 7 days at T = 60° C.; format: physicochemical; settings: for Crystallinity in 7 days / Relative peak area, in 7 days: 7 days at T = 60° C.; for Relative peak area, initial: before storage; for content of impurities: kept seven days at 60° C.
[6] = Dissolution kinetics (USP Apparatus 1 Basket Method); format: physicochemical; settings: for pH of prepared solution: 780 minutes after beginning
Description: During further studies of the polymorphous modifications of the methanesulfonic acid salt of 3-(1,2,4-triazolo[4,3-a]pyridine-3-ylethynyl)-4-methyl-N-(4-((4-methylpiperazine-1-yl)methyl)-3-trifluoromethylphenyl)benzamide, the kinetics of dissolution of the free base and the two methanesulfonic acid salt form polymorphous modifications was studied. Dissolution kinetics studies were performed using USP Apparatus 1 Basket Method (USP40, General Chapter <711>. Dissolution), dissolution media volume—700 mL, temperature—37±1° C. paddle stirrers' rotation rate—100 rpm. The test sample dissolution rate was calculated as an average of six repeats. Distilled water was used as the dissolution medium for the polymorphous modifications of 3-(1,2,4-triazolo[4,3-a]pyridine-3-ylethynyl)-4-methyl-N-(4-((4-methylpiperazine-1-yl)methyl)-3-trifluoromethylphenyl)benzamide methanesulfonic acid salt and, and a solution of 12.2 mL of methanesulfonic acid in 500 mL of water was used as the dissolution medium for the free base. Test portions containing 100 mg of 3-(1,2,4-triazolo[4,3-a]pyridine-3-ylethynyl)-4-methyl-N-(4-((4-methylpiperazine-1-yl)methyl)-3-trifluoromethylphenyl)benzamide or 118 mg of 3-(1,2,4-triazolo[4,3-a]pyridine-3-ylethynyl)-4-methyl-N-(4-((4-methylpiperazine-1-yl)methyl)-3-trifluoromethylphenyl)benzamide methanesulfonic acid salt (100 mg calculated as free base) were used for dissolution. In 780 minutes (13 hours) after the beginning of the test, pH of prepared solutions was measured.

CD-1 line mice males = test: Acute toxicity, oral route, mice
Source text: (§1) For each drug dose study a group of six animals was used. The study included control groups with the same animal headcount, which received equivalent solvent doses of a 0.5% water solution of methylcellulose. The follow-up period was 28 days. Lab mouse survivability analysis allowed carrying out Bliss analysis and determining the lethal doses of the studied drugs.

[7] = Acute toxicity, oral route, mice; settings: male, CD-1, mouse, in vivo, po, LD50, oral, male CD-1 mice; dose of the substance administered
Source text: as §1

pKa of the base = format: physicochemical
in vivo = test: in vivo; parameters: species or system C57BL/6 line mice
Description: FIGS. 52A-52B. […] The mean values were determined for each time point on the basis of the individual data obtained from three animals.
The results of the study are given in FIG. 52 and in Tables 14 and 15.

physchem [8] = settings: deionized water, thermodynamic from solid, Equilibrium solubility, HPLC analysis
[9] = Solubility of the free base in various solvents; format: physicochemical; settings: thermodynamic from solid
Description: At the first stage the initial base was tested for solubility in selected organic solvents. The maximum selected solvent volume used in this test was 1.25 mL per 1 mg of base. Low toxicity (Class 3), low-boiling (Tboiling<100° C.), polar, solvents. in which the base was soluble at no less than 10 mg/mL were selected for further studies.

[10] = system: Sca1+ marrow cells, expressing p185-T315I^BCR/ABL; test: BCR/ABL-induced chronic myelogenous leukemia model; format: in vivo, C57BL/6N line mice; settings: oral, 50 mg/kg free base; control 55.0 ± 6.3
Description: To assess the efficacy of the free base and methanesulfonic acid salt of 3-(1,2,4-triazolo[4,3-a]pyridine-3-ylethynyl)-4-methyl-N-(4-((4-methylpiperazine-1-yl)methyl)-3-trifluoromethylphenyl)benzamide for treating chronic myelogenous leukemia (CML) studies of the compounds' activity on the BCR/ABL-induced CML-like disease in mice were conducted. In the study C57BL/6N line mice were used. […] The efficacy of therapy with 3-(1,2,4-triazolo[4,3-a]pyridine-3-ylethynyl)-4-methyl-N-(4-((4-methylpiperazine-1-yl)methyl)-3-trifluoromethylphenyl)benzamide administered orally as a free base and methanesulfonic acid salt was studied.

[11] = oral, male CD-1 mice, dose of the substance administered
[12] = mouse, free base 50 mg/kg, single oral, C57BL/6 mice, plasma
[13] = mesylate polymorphous modification I 59 mg/kg (50 mg/kg as free base), single oral, C57BL/6 mice

Cc1ccc(C(=O)Nc2ccc(CN3CCN(C)CC3)c(C(F)(F)F)c2)cc1C#Cc1nnc2ccccn12.Cl [HAL-G-196-2]
sample hygroscopicity (water sorption and desorption) ([1]; gravimetric moisture absorption): desorbed and sorbed water, the volume of which corresponded to a dihydrate
Apparent solubility (physchem [2]; RT): >29000 µg/mL

Cc1ccc(C(=O)Nc2ccc(CN3CCN(C)CC3)c(C(F)(F)F)c2)cc1C#Cc1nnc2ccccn12.Cl [HAL-G-196-3]
pH [3]: 4.0
Crystallinity in 24 h [3]: Amorphous
crystalline structure after suspending in acetone [4]: remained unchanged
Crystallinity in 6 days [4]: Form II
water absorbed (hygroscopicity) [1]: less than 8 mass percent
Crystallinity in 7 days [5]: Form II
Relative peak area, in 7 days [5]: 99.9%
Relative peak area, initial [5]: 99.9%
content of impurities [5]: remained constant

Br.Cc1ccc(C(=O)Nc2ccc(CN3CCN(C)CC3)c(C(F)(F)F)c2)cc1C#Cc1nnc2ccccn12 [HAL-G-196-7]
water absorbed (hygroscopicity) [1]: more than ten mass percent of water and thawed in the air

Cc1ccc(C(=O)Nc2ccc(CN3CCN(C)CC3)c(C(F)(F)F)c2)cc1C#Cc1nnc2ccccn12.Cc1ccc(S(=O)(=O)O)cc1 [HAL-G-196-24]
pH [3]: 3.5
Crystallinity in 24 h [3]: Cryst.
crystalline structure after suspending in acetone [4]: remained unchanged
water absorbed (hygroscopicity) [1]: less than four mass percent of water
Crystallinity in 7 days [5]: Cryst.
Relative peak area, in 7 days [5]: 99.9%
Relative peak area, initial [5]: 99.8%
content of impurities [5]: remained constant

Cc1ccc(C(=O)Nc2ccc(CN3CCN(C)CC3)c(C(F)(F)F)c2)cc1C#Cc1nnc2ccccn12.O=C(O)/C=C/C(=O)O [HAL-G-196-29]
pH [3]: 4.2
Crystallinity in 24 h [3]: Cryst.
crystalline structure after suspending in acetone [4]: remained unchanged
Crystallinity in 6 days [4]: Cryst.
water absorbed (hygroscopicity) [1]: less than four mass percent of water
Crystallinity in 7 days [5]: Cryst.
Relative peak area, in 7 days [5]: 99.9%
Relative peak area, initial [5]: 99.8%
content of impurities [5]: remained constant

Cc1ccc(C(=O)Nc2ccc(CN3CCN(C)CC3)c(C(F)(F)F)c2)cc1C#Cc1nnc2ccccn12 [free base, 3-(1,2,4-triazolo[4,3-a]pyridine-3-ylethynyl)-4-methyl-N-(4-((4-methylpiperazin-1-yl)methyl)-3-trifluoromethylphenyl)benzamide]
pH of prepared solution ([6]; medium 12.2 mL methanesulfonic acid in 500 mL water): 4.02
share dissolved ([6]; solution containing 12.2 mL methanesulfonic acid, 780 minutes (13 hours)): less than 90%
pH [3]: 5.3
Crystallinity in 24 h [3]: Cryst.
Dose without observable effects (CD-1 line mice males; male, CD-1, mouse, in vivo, po, 28 days): 160 mg/kg
signs of animal intoxication (CD-1 line mice males; mouse, in vivo, po): dyspnea, hypodynamia, tumbled fur, diarrhea, bloating, in some animals—focal alopecia
LD10 (CD-1 line mice males; [11]): 504 mg/kg
LD90 (CD-1 line mice males; [11]): 850 mg/kg
LD50 at 28 days [7]: 677 ± 55 mg/kg
pKa (pKa of the base): ~6.4
AUC0-24/24 (in vivo; free base 50 mg/kg, single oral, C57BL/6 mice, plasma): 452 ng/mL
AUC(0-inf) (in vivo; [12]): 10900 ng·h/mL
half-life (in vivo; [12]): 2.4 h
AUC(0-t) (in vivo; mouse, free base 50 mg/kg, single oral, C57BL/6 mice, plasma, read-out: AUC0-24): 10900 ng·h/mL
Cmax (in vivo; mouse, free base 50 mg/kg, single oral, C57BL/6 mice, plasma, read-out: Cmax): 1490 ng/mL
Tmax (in vivo; mouse, free base 50 mg/kg, single oral, C57BL/6 mice, plasma, read-out: Tmax): 2 h
crystalline structure after suspending in acetone [4]: changes
Crystallinity in 6 days [4]: Form II
solubility thermodynamic (physchem [8]): 0.23 µg/mL (≈ 0.432 µM)
water absorbed (hygroscopicity) [1]: less than three mass percent of water
Crystallinity in 7 days [5]: Form I
Relative peak area, in 7 days [5]: 99.7%
Relative peak area, initial [5]: 99.7%
content of impurities [5]: remains constant
solubility ([9]; organic solvent or mixture, 2-methyltetrahydrofuran, 3.7 mg in 0.6 mL, 50 °C): > 800 µg/mL
solubility ([9]; organic solvent or mixture, Acetone, 3.4 mg in 0.3 mL, 50 °C): > 800 µg/mL
solubility ([9]; organic solvent or mixture, Acetonitrile, 3.5 mg in 4.0 mL, 50 °C): < 800 µg/mL
solubility ([9]; organic solvent or mixture, Cyclohexane, 4.3 mg in 4.0 mL, 50 °C): < 800 µg/mL
solubility ([9]; organic solvent or mixture, Dichloromethane, 3.7 mg in 0.4 mL, 50 °C): > 800 µg/mL
solubility ([9]; organic solvent or mixture, Dimethyl sulfoxide, 3.8 mg in 0.1 mL, RT): > 800 µg/mL
solubility ([9]; organic solvent or mixture, Dimethylformamide, 4.7 mg in 0.1 mL, RT): > 800 µg/mL
solubility ([9]; organic solvent or mixture, Ethanol, 4.7 mg in 0.3 mL, 50 °C): > 800 µg/mL
solubility ([9]; organic solvent or mixture, Ethyl acetate, 3.9 mg in 1.3 mL, 50 °C): > 800 µg/mL
solubility ([9]; organic solvent or mixture, Heptane, 3.3 mg in 4.0 mL, 50 °C): < 800 µg/mL
solubility ([9]; organic solvent or mixture, Isopropanol, 3.6 mg in 0.4 mL, 50 °C): > 800 µg/mL
solubility ([9]; organic solvent or mixture, Isopropyl acetate, 4.0 mg in 4.0 mL, 50 °C): < 800 µg/mL
solubility ([9]; organic solvent or mixture, Methanol, 4.0 mg in 0.1 mL, 50 °C): > 800 µg/mL
solubility ([9]; organic solvent or mixture, Methyl ethyl ketone, 4.8 mg in 0.4 mL, 50 °C): > 800 µg/mL
solubility ([9]; organic solvent or mixture, Methyl isobutyl ketone, 4.1 mg in 0.6 mL, 50 °C): > 800 µg/mL
solubility ([9]; organic solvent or mixture, Methyl tert-butyl ether, 4.7 mg in 4.0 mL, 50 °C): < 800 µg/mL
solubility ([9]; organic solvent or mixture, N-methylpyrrolidone, 3.7 mg in 0.1 mL, RT): > 800 µg/mL
solubility ([9]; organic solvent or mixture, Tetrahydrofuran, 3.6 mg in 0.1 mL, 50 °C): > 800 µg/mL
solubility ([9]; organic solvent or mixture, Toluene, 3.4 mg in 4.0 mL, 50 °C): < 800 µg/mL
solubility ([9]; organic solvent or mixture, n-Butanol, 3.6 mg in 0.2 mL, 50 °C): > 800 µg/mL
solubility ([9]; Water, 4.6 mg in 4.0 mL, 50 °C): < 800 µg/mL
Average life [10]: 93.0 ± 6.1 days
solubility (physchem [2]; water, read-out: Apparent solubility): < 1000 µg/mL

CS(=O)(=O)O.Cc1ccc(C(=O)Nc2ccc(CN3CCN(C)CC3)c(C(F)(F)F)c2)cc1C#Cc1nnc2ccccn12 [methanesulfonic acid salt (polymorphous modification I)] [3-(1,2,4-triazolo[4,3-a]pyridine-3-ylethynyl)-4-methyl-N-(4-((4-methylpiperazin-1-yl)methyl)-3-trifluoromethylphenyl)benzamide mono methanesulfonic acid salt, polymorphous modification I]
pH of prepared solution ([6]; medium distilled water): 5.04
AUC0-24 (in vivo; [13]): 11,933 ngh/mL
AUC0-24/24 (in vivo; [13]): 497 ng/mL
AUC0-∞ (in vivo; [13]): 12,103 ng · h/mL
Cmax (in vivo; [13]): 1,099 ng/mL
T1/2 (in vivo; [13]): 3.8 h
Tmax (in vivo; [13]): 4 h

CS(=O)(=O)O.Cc1ccc(C(=O)Nc2ccc(CN3CCN(C)CC3)c(C(F)(F)F)c2)cc1C#Cc1nnc2ccccn12 [methanesulfonic acid salt (polymorphous modification II)] [3-(1,2,4-triazolo[4,3-a]pyridine-3-ylethynyl)-4-methyl-N-(4-((4-methylpiperazin-1-yl)methyl)-3-trifluoromethylphenyl)benzamide mono methanesulfonic acid salt, polymorphous modification II]
pH of prepared solution ([6]; medium distilled water): 4.95
differences in all pharmacokinetic parameters studied versus polymorphous modification I (in vivo; mouse, in vivo): No statistically true differences in all pharmacokinetic parameters studied were revealed after administration of the salt form as polymorphous modification II (p < 0.05).
